Results as given in ChEMBL document CHEMBL1201862, “PubChem BioAssay data set” (2004).
Active and inactive are the calls of the source. For most assays here, no stated cut-off is given here; in the data, actives have a measured EC50 and inactives only a lower limit.

Experiments:
[1] = target: T1, Carboxy-terminal domain RNA polymerase II polypeptide A small phosphatase 1 (Homo sapiens, UniProt Q9GZU7); assay: CTDSP1 inhibitors, concentration-response, biochemical, absorbance readout, ultra-high-throughput screen actives (AID 540297); type: functional
T1 sequence (Q9GZU7 whole entry): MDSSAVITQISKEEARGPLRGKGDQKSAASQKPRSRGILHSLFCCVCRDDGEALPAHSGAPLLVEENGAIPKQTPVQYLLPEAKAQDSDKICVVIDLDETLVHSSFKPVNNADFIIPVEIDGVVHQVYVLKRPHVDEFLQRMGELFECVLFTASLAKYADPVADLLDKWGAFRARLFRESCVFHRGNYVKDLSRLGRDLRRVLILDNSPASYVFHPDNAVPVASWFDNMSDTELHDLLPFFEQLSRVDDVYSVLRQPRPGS

[2] = DRD fibroblast viability loss – cell-based, non-viral oncogenic, luminescence, dose response (AID 1934); type: functional; details: Homo sapiens
BJ [3] = assay: BJ-TERT fibroblast viability loss – cell-based, RAS-independent, luminescence, dose response (AID 1933); type: functional; details: Homo sapiens
BJ [4] = assay: BJ-TERT-LT-ST fibroblast viability loss – cell-based, RAS-independent, luminescence, dose response (AID 1935); type: functional; details: Homo sapiens;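 further: BJ fibroblasts immortalized with TERT plus LT and ST oncogenes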
BJ [5] = assay: cells; type: functional, cell-based; details: Homo sapiens
Protein skinhead-1 = target: T2, Protein skinhead-1 (Caenorhabditis elegans, UniProt P34707); type: functional
T2 sequence (P34707 whole entry): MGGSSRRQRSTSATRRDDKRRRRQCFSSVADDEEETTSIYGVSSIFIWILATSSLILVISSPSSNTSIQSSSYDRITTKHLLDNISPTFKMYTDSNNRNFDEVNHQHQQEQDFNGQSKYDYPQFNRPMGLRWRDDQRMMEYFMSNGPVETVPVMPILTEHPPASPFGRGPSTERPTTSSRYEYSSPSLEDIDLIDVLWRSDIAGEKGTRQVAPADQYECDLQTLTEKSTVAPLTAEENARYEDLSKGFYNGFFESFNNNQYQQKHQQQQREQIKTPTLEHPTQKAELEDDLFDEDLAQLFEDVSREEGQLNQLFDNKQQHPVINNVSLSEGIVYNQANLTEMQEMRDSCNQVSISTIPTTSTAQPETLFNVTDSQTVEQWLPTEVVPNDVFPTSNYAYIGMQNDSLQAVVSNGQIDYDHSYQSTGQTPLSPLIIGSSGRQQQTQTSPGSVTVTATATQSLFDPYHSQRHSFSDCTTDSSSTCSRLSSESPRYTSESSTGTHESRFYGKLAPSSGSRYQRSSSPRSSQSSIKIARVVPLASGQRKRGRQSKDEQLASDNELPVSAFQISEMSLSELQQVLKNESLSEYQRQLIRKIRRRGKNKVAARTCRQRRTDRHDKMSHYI

[6] = target: T3, RNA-binding protein pos-1 (Caenorhabditis elegans, UniProt G5EF15); assay: disruptors of C. elegans POS-1 RNA interaction – biochemical, fluorescence polarization, dose response (AID 1964);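 further: purified POS-1 fused to maltose binding protein made in E. coli; potency of compounds blocking POS-1 binding to fluorescent RNA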
T3 sequence (G5EF15 whole entry): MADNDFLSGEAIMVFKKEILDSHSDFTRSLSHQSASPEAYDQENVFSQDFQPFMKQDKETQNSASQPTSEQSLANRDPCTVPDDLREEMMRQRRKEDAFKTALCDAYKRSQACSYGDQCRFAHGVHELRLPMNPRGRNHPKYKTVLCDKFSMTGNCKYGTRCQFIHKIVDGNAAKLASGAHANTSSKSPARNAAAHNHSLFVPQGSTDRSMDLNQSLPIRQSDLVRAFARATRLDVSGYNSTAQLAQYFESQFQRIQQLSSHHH

[7] = target: T4, Zinc finger protein mex-5 (Caenorhabditis elegans, UniProt Q9XUB2); assay: potency of MEX-5 RNA-binding blockers – biochemical, C. elegans, fluorescence polarization, dose response (AID 1960)
T4 sequence (Q9XUB2 whole entry): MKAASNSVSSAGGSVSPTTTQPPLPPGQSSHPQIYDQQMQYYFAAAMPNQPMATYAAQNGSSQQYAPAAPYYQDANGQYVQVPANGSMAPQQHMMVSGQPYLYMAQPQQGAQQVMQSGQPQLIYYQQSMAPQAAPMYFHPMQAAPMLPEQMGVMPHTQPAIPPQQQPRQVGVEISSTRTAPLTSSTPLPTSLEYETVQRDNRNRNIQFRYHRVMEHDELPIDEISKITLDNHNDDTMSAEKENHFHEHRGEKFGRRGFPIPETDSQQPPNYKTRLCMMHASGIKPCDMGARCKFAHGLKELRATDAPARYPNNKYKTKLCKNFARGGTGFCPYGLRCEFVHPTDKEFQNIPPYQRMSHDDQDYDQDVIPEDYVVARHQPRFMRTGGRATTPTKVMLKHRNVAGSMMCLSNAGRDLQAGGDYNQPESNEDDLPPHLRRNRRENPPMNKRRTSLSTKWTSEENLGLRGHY

[8] = target: T5, Polyadenylate-binding protein 1 (Homo sapiens, UniProt P11940); assay: MLLE domain peptide-binding blockers, IC50 – biochemical, fluorescence polarization, FITC-PAM2 peptide, dose response (AID 602259); type: functional; details: read-out: IC50_Mean
T5 sequence (P11940 whole entry, the tested form may be a part): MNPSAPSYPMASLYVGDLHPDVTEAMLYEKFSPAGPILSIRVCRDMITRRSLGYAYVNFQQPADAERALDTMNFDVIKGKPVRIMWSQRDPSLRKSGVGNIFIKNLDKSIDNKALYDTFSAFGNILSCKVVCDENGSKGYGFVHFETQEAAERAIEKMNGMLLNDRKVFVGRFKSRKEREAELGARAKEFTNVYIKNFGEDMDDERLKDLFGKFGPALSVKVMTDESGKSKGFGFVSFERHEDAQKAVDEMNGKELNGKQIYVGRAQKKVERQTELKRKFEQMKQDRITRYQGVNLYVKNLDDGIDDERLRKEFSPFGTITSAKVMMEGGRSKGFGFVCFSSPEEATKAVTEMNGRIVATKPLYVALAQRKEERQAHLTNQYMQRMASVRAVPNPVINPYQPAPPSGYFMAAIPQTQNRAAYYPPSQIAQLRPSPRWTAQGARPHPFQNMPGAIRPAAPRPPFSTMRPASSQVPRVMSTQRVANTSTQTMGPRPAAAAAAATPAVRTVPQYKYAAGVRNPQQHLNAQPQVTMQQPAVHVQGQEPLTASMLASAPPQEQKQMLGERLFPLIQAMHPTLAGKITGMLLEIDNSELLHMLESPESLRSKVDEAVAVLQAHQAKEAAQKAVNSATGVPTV

[9] = target: T6, Corticotropin-releasing factor receptor 2/Corticotropin-releasing factor-binding protein (Homo sapiens, UniProt P24387+Q13324); assay: activators of CRF receptor 2 with binding protein – uHTS hits, confirmation (AID 602473); type: functional; details: read-out: EC50_Mean
T6 sequence (Q13324 whole entry): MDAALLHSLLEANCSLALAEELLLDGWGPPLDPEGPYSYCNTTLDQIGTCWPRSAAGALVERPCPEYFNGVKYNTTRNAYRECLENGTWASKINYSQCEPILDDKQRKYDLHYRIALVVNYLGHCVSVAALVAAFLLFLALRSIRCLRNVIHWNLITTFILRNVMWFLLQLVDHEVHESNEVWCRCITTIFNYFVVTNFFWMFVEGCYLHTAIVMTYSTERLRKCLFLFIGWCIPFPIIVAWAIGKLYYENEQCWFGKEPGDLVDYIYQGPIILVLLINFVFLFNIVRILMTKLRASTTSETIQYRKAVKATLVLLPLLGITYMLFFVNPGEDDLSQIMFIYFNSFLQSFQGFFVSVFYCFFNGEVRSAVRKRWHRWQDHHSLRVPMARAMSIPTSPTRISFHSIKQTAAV
T6 sequence (P24387 whole entry): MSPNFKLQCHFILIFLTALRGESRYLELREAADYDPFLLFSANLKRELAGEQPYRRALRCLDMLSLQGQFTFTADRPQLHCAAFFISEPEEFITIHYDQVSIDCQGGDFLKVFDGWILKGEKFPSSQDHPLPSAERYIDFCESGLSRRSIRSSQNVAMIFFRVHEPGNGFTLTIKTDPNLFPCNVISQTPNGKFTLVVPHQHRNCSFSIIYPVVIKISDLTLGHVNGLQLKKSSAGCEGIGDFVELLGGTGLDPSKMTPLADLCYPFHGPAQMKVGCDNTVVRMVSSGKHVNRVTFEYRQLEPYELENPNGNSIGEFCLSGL

[10] = target: T6, Corticotropin-releasing factor receptor 2/Corticotropin-releasing factor-binding protein; assay: Dose Response confirmation of uHTS hits for small molecule antagonists of the CRF-binding protein and CRF-R2 receptor complex.; type: functional; details: read-out: IC50_Mean
[11] = target: T5, Polyadenylate-binding protein 1; assay: MLLE binding blockers, Cy5 peptide tracer – biochemical, fluorescence polarization, Cy5-PAM2 peptide, secondary, miRNA deadenylation inhibitor project, dose response (AID 602260); type: functional; details: read-out: IC50_Mean
Streptococcus = assay: GAS UMAA2166 growth inhibition – luminescence, BacTiterGlo, counter-screen for streptokinase expression inhibitor project, dose response (AID 1915); type: functional, organism-based;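 further: potency for reduction of bacterial viability or growth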
[12] = tested on: Streptococcus sp. 'group A'; assay: Streptococcus pyogenes SK(-)GAS viability under kanamycin – luminescence, BacTiterGlo, confirmation, counter-screen for streptokinase expression inhibitor project, dose response (AID 1900); type: functional, organism-based
Streptokinase A = target: T7, Streptokinase A (Streptococcus pyogenes serotype M1, UniProt P10520); assay: viability-normalized secreted streptokinase activity reduction – plasminogen activation absorbance, OD405, dose response (AID 1914); type: functional, Streptococcus pyogenes M1 GAS;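 further: secreted streptokinase activity via plasminogen activation per viability signal from cell pellet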
T7 sequence (P10520 whole entry): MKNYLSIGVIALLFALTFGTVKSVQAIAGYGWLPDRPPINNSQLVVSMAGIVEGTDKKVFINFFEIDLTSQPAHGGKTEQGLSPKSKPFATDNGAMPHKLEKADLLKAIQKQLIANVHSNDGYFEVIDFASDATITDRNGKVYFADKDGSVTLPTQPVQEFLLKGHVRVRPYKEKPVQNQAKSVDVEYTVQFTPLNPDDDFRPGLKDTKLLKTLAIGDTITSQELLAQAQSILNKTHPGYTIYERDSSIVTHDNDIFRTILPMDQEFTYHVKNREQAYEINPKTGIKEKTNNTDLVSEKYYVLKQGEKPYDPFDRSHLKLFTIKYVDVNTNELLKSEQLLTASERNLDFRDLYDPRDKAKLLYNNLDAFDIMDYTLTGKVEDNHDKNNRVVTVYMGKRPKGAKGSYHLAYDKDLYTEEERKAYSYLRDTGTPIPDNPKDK

Paired box protein Pax-8 = Paired box protein Pax-8 (Homo sapiens, UniProt Q06710); assay: PAX8 transcriptional activity inhibition in RMG-I – RMG-I cells, luciferase, cherry-pick, dose response (AID 687027); type: functional, cell-based;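 further: luciferase reporter driven by Pax8 target thyroperoxidase promoter measured by SteadyGlo luminescence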
Chain of Paired box protein Pax-8 (Q06710 whole entry): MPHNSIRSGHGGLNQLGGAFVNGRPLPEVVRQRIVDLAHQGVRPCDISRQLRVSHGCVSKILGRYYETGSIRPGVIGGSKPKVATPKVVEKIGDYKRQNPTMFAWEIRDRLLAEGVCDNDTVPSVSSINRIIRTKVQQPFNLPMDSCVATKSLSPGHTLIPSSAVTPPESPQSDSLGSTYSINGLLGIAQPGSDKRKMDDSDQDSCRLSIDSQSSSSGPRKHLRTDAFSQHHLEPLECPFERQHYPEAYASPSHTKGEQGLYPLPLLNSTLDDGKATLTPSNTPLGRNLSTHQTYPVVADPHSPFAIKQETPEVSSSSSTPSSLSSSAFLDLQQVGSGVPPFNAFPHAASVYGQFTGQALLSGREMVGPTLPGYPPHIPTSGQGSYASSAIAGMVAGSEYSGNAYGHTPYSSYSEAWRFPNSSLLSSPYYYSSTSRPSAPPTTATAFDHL

H4 = assay: Luminescence Cell-Based Dose Response HTS to Identify Activators of 5'UTR Stem-Loop Driven Prion Protein mRNA Translation in H4 Neuroglioblastoma Cells. [Related pubchem assays: 1829 (Project Summary), 1814 (Primary HTS)]; type: functional; details: Homo sapiens
[13] = Luminescence Cell-Based Dose Confirmation HTS to Identify Activators of 5'UTR Stem-Loop Driven Alpha-Synuclein mRNA Translation in H4 Neuroglioblastoma Cells. [Related pubchem assays: 1829 (Project Summary), 1814 (Primary HTS)]; type: functional
[14] = Luminescence Cell-Based Dose Response HTS to Identify Activators of Luciferase Translation or Activity in H4 […] Cells. [Related pubchem assays: 1829 (Project Summary), 1814 (Primary HTS)]; type: functional

## CCOc1ccc(C(=O)Nc2ccc(NC(=O)c3ccccc3)c(C)c2)cc1[N+](=O)[O-]
[1]
  IC50: 5.03 µM (active)

## Cc1nc([N+](=O)[O-])c(Br)n1CC(=O)c1cccc([N+](=O)[O-])c1
[2]
  EC50: > 150 µM (not active)
BJ [3]
  EC50: > 150 µM (not active)
BJ [4]
  EC50: > 150 µM (inconclusive)
BJ [5]
  EC50: > 150 µM (not active)

## O=C(O)c1ccc(Nc2ccc([N+](=O)[O-])c3nonc23)cc1
Protein skinhead-1
  IC50: 48.5 µM (active)

## COc1ccc(C2C(C#N)=C(N)OC3=C2C(=O)CCC3)c(OC)c1OC (centres undefined)
[6]
  EC50: > 300 µM (not active)
[7]
  EC50: > 300 µM (not active)

## CN(C(=O)CN1C(=O)/C(=C/c2ccccc2Cl)SC1=S)C1CCS(=O)(=O)C1 (centres undefined)
[8]
  IC50: > 66 µM (inactive)
[9]
  EC50: > 53 µM (inactive)
[10]
  IC50: > 47.1 µM (inactive)
[11]
  IC50: > 66 µM (inactive)

## CCOc1ccc2nc(NC(=O)CN3CCC(n4nnc5cc(C(F)(F)F)ccc54)CC3)sc2c1
Streptococcus
  EC50: > 150 µM (not active)
[12]
  EC50: 68.6 µM (active)
Streptokinase A
  EC50: > 150 µM (not active)
Protein skinhead-1
  IC50: > 100 µM (inactive)

## c1ccc(-c2cn3c(n2)-c2ccccc2C3)cc1
[2]
  EC50: 11.6 µM (active)
BJ [3]
  EC50: 14.9 µM (active)
BJ [4]
  EC50: > 150 µM (inconclusive)
BJ [5]
  EC50: 14.3 µM (active)

## O=C1c2ccccc2C(=O)N1Nc1ccc([N+](=O)[O-])cc1[N+](=O)[O-]
[1]
  IC50: 16.9 µM (active)

## Cc1ccc2[nH]c(/C(C#N)=C/c3ccc(-c4cccc([N+](=O)[O-])c4)o3)nc2c1
[1]
  IC50: 6.06 µM (active)

## CC(C)(C)OC(=O)NCCCC1=CC2=CC(=O)C(C)(OC(=O)c3ccc(Cl)nc3)C(=O)C2=CO1 (centres undefined)
[6]
  EC50: 17.2 µM (active)
[7]
  EC50: 20 µM (active)

## COc1cc2nc(C3CCC3)nc(N3CCN(c4ccccc4OC)CC3)c2cc1OC
Paired box protein Pax-8
  AC50: 18.9 µM (active)

## Cn1ncc2c(NCCc3ccccc3)nc(Cl)nc21
Protein skinhead-1
  IC50: > 100 µM (inactive)

## O=C(O)CCc1ccc(-c2cccs2)n1-c1ccc(C(=O)O)cc1
[6]
  EC50: > 300 µM (not active)
[7]
  EC50: > 300 µM (not active)

## Cc1cc(C)c(NC(=O)COC(=O)C2CCN(c3ccc(C(F)(F)F)cn3)CC2)c(Cl)c1
Protein skinhead-1
  IC50: > 100 µM (inactive)

## CCC1(C)Cc2ccccc2-c2nc(NCCO)n(-c3ccc(C)cc3)c(=O)c21 (centres undefined)
H4
  EC50: > 120 µM (not active)
[13]
  EC50: > 120 µM (not active)
[14]
  EC50: > 120 µM (not active)
Protein skinhead-1
  IC50: > 100 µM (inactive)

## CC(C)(C)OC(=O)NCCCCC1=CC2=CC(=O)C(C)(OC(=O)c3cnc4ccccc4n3)C(=O)C2=CO1 (centres undefined)
[6]
  EC50: 17.2 µM (active)
[7]
  EC50: 15 µM (active)

## Cc1ccc(NC(=S)NC(=O)C2CC2)c(C)c1
Protein skinhead-1
  IC50: > 100 µM (inactive)

## c1ccc(-c2ccc(-c3ccncn3)cc2)cc1
Protein skinhead-1
  IC50: 15.2 µM (active)

## Cc1ccc(NC(=O)CSCC(=O)Nc2ccccc2C(=O)N2CCCCC2)cc1
Protein skinhead-1
  IC50: > 100 µM (inactive)

## C[C@H]1CCCCO[C@@H](CN(C)C(=O)NC2CCCCC2)[C@@H](C)CN([C@@H](C)CO)C(=O)c2cc(NC(=O)Nc3ccc(C(F)(F)F)cc3)ccc2O1
Paired box protein Pax-8
  AC50: 2.54 µM (active)

## C=C1[C@@H](C)C2[C@H](Cc3ccccc3)NC(=O)[C@]23OC(=O)CC[C@H](O)CCC[C@H](C)C/C=C/[C@H]3[C@@H]1O (some centres undefined)
[2]
  EC50: 12.2 µM (inconclusive)
BJ [3]
  EC50: 8.36 µM (inconclusive)
BJ [4]
  EC50: 17.2 µM (active)
BJ [5]
  EC50: > 150 µM (not active)

## CCOC(=O)N1CCN(C(=O)Nc2ccc(Cl)cc2)CC1
Protein skinhead-1
  IC50: > 100 µM (inactive)
